The text below walks through data of PMC5281058 (Journal of the American Chemical Society, 2015).

Read-outs that look alike come from different tables or passages of the source.

For data set [1], the target named is T1, adenosine deaminase (ADA) (Homo sapiens, UniProt P00813).
T1 sequence (P00813 1-363): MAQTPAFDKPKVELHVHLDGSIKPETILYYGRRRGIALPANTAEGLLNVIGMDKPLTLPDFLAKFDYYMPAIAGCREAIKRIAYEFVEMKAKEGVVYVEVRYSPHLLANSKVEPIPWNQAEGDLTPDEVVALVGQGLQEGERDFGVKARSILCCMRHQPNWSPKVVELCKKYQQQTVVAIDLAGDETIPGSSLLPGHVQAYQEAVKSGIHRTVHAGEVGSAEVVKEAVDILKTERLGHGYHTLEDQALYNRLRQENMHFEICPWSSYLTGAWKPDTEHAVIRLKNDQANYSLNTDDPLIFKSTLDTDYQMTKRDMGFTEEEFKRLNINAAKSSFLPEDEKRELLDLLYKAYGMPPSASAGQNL
The class given is biochemical. The settings on record: for reaction half-life t1/2 of deamination by ADA: calculated assuming a pseudo-first order reaction, real-time absorption; for deamination rate by ADA (in words): real-time continuous measurements, compared with A to I.

For data set [2], the target named is T1, adenosine deaminase (ADA). The settings on record: conversion of ^thA to ^thI; ref 4b; cited from earlier work.
The conditions of data set [3]: cited from earlier work.

Take `Nc1ncnc2c([C@@H]3O[C@H](CO)[C@@H](O)[C@H]3O)scc12` [^thA]: in data set [1], the “reaction half-life t1/2 of deamination by ADA” value is on record as 818 s and the “deamination rate by ADA (in words)” value was “sluggish”. The “enzymatic conversion by ADA, times slower compared to adenosine” value in data set [2] is “approximately 20 times”.

For `Nc1ncnc2c([C@@H]3O[C@H](CO)[C@@H](O)[C@H]3O)snc12` [^tzA], in data set [1], the “reaction half-life t1/2 of deamination by ADA” value was 39 s and the “deamination rate by ADA (in words)” value was “at the same rate as it deaminates A to I”.

In the case of `Nc1ncnc2c1ncn2[C@@H]1O[C@H](CO)[C@@H](O)[C@H]1O` [adenosine], the half-life in data set [1] (adenosine deaminase (ADA) enzyme) was 57 s. In addition, the “pKa (N1)” value in data set [3] (reported values for adenosine) is recorded as 3.6– 4.2.

For the molecule `Nc1nc2c(ncn2[C@@H]2O[C@H](CO)[C@@H](O)[C@H]2O)c(=O)[nH]1` [guanosine], the “pKa (N7)” value in data set [3] (reported values for guanosine, first value) is given as 3.2–3.3. Further, the “pKa (N1)” value in data set [3] (reported values for guanosine, second value) is listed as 9.2–9.6.

For `O=c1ccn([C@@H]2O[C@H](CO)[C@@H](O)[C@H]2O)c(=O)[nH]1` [uridine], the “pKa (N3 deprotonation)” value in data set [3] (values reported for N3 deprotonation in uridine) was 9.20–9.25.

As usually defined, the half-life is how long it takes for the measured level to halve. High values mean slow decline, low ones rapid decline.
